Source: PMC6324813, “Biological evaluation of isoflavonoids from Genista halacsyi using estrogen-target cells: Activities of glucosides compared to aglycones” (PLoS ONE, 2019)
Read-outs that look alike come from different tables or passages of the source.

Experiments:
MCF-7 cells = assay: MCF-7 cell proliferation (MTT); type: cell-based, human; details: for Induction of cell proliferation (MCF-7 cells) Agonism at 1μΜ, class: compounds 1 μM, 72 h; for activation at 1 µM: Homo sapiens, MCF7, 72 h, read-out: Induction of cell proliferation (MCF-7 cells) Agonism at 1μΜ (% of 0.1nM E2); for MCF-7 cell proliferation agonist effect compared to the effect of 0.1 nM estradiol: isoflavonoids 1 μM, statistically significant effects
Protocol: Test compound effects on the proliferation of MCF-7 and MDA-MB-231 cells were assessed as previously described.

ERβ [1] = molecular target: T1, ERβ (Homo sapiens, UniProt Q92731); assay: ER binding competitor assay (fluorescent estrogen ES2), ERβ; set-up: purchased Invitrogen; details: for RBAβ / RBAα: ERβ-binding selectivity; for RBAβ: RBA = (IC50 estradiol/IC50 compound) × 100, ES2 1 nM, estradiol set equal to 100
T1 sequence (Q92731 whole entry): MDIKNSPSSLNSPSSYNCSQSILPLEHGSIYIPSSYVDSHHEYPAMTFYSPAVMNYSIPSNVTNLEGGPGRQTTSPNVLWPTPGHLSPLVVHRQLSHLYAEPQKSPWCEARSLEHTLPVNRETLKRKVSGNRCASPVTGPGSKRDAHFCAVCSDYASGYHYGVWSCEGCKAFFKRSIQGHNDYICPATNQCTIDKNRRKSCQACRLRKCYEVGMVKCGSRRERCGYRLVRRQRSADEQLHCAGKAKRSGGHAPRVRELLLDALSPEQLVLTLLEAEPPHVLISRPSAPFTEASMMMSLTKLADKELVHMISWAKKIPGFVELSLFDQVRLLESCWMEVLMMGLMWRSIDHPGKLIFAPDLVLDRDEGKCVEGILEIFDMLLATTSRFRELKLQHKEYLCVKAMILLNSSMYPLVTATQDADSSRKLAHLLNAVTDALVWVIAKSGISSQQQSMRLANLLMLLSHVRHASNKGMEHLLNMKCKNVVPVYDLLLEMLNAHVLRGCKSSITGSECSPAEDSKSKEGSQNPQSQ

ERα [2] = molecular target: T2, ERα (Homo sapiens, UniProt P03372); assay: ER binding competitor assay (fluorescent estrogen ES2), ERα; set-up: purchased Invitrogen; details: RBA = (IC50 estradiol/IC50 compound) × 100; ES2 1 nM; estradiol set equal to 100
T2 sequence (P03372 1-595): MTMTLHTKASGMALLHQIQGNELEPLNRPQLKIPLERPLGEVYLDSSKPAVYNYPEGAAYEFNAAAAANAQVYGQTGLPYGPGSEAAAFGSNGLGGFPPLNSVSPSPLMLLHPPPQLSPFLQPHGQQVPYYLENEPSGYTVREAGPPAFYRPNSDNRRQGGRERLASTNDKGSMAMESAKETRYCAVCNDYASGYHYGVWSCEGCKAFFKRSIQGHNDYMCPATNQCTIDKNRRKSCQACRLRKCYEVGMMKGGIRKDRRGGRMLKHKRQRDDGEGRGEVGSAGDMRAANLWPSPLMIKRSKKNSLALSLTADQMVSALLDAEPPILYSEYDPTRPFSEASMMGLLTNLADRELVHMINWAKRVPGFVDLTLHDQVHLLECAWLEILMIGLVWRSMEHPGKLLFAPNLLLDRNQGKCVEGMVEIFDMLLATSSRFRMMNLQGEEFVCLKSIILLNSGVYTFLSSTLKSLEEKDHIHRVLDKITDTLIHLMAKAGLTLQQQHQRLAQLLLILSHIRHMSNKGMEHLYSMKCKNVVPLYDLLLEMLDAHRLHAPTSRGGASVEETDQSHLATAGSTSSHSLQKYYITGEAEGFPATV

Ishikawa cells = assay: Induction of AlkP expression in Ishikawa cells; type: cell-based, human; details: for Induction of Alkaline Phosphatase Expression (Ishikawa cells) AUC (%): % of AUC of luciferase response of archetypal 3, 4, 5 or 8 up to 0.3, 10, 1.0 and 3.0 μM; for Ratio of AUC (AlkP / Lucif): AUCAlkP / AUCluciferase; for EC (25% of 0.1 nM E2 effect) / EC50: Homo sapiens, Ishikawa; for EC (25% of 0.1 nM E2 effect) / Induction of AlkP expression (Ishikawa cells) Agonism at 1μΜ, class: 72 h; for EC (25% of 0.1 nM E2 effect): concentration required to achieve 25% of the effect of 0.1 nM E2, read-out: Induction of Alkaline Phosphatase Expression (Ishikawa cells) EC25E2; for EC50: read-out: Induction of Alkaline Phosphatase Expression (Ishikawa cells) EC50E2; for Induction of AlkP expression (Ishikawa cells) Agonism at 1μΜ, class: compounds 1 μM
Protocol: Induction of AlkP expression of Ishikawa cells is considered as a reliable in vitro measure of estrogenic activity. Assessment of AlkP expression in Ishikawa cells was carried as already described. Briefly, the cells were plated in 96-well plates at a density of 12,000 cells per well in phenol-red-free MEM supplemented with 1 μg/mL insulin and 5% DCC-FBS. […] Data on the dependence of AlkP activity on isoflavonoid concentration were curve fitted using SigmaPlot10 (SPSS Inc) and the numerical data of curve fitting were used to determine AUC as described above, using for the calculation of AUC of a particular AlkP response the very same concentration used for the respective luciferase response. The AUC of AlkP responses of the isoflavonoids of a group were expressed as % of the AUC of the luciferase response of the respective archetypal isoflavone.

ERα [3] = molecular target: T2, ERα; assay: ERE-dependent luciferase gene transcription in MCF-7:D5L cells; type: cell-based; set-up: MCF-7:D5L cells, a clone of MCF-7 cells stably transfected with an Estrogen Response Element (ERE)-endowed reporter plasmid; endogenous in cells; host or cells: MCF-7:D5L (MCF-7 clone carrying pERE-Gl-Luciferase); details: for Induction of ERE-dependent Luciferase Transcription (MCF-7:D5L cells) AUC (%): % of AUC of luciferase response of archetypal 3, 4, 5 or 8 up to 0.3, 10, 1.0 and 3.0 μM; for Induction of ERE-dependent Luciferase Transcription (MCF-7:D5L cells) EC25E2: concentration required to achieve 25% of the effect of 0.1 nM E2
Protocol: (§1) Assessment of ER/ERE-dependent luciferase gene transcription in MCF-7:D5L (express ERα) and HEK:ERβ cells (express ERβ) and determination of ER transcriptional agonism was carried as already described. Briefly, the cells were plated in 96-well plates at a density of 12,000 cells per well in phenol-red-free MEM (MCF-7:D5L cells) or phenol-red-free DMEM (HEK:ERβ cells) supplemented with 1 μg/mL insulin and 5% DCC-FBS. […] The AUC of the isoflavonoids of each group were then expressed as % of the AUC of the respective archetypal isoflavone. Since AUC data combine the efficacy as well as the potency of cell response into a single parameter, the %AUC data were considered here as a more reliable measure of relative ER/ERE-dependent luciferase expression of the test compounds.

ERβ [4] = molecular target: T1, ERβ; assay: ERE-dependent luciferase gene transcription in HEK:ERβ cells; type: cell-based; set-up: expressed in transfected cells; host or cells: HEK-293 (HEK:ERβ clone, with pERE-tk-Luciferase)
Protocol: as §1

HT22 cells = details: read-out: half maximal concentration for HT22 oxytosis inhibition; cited from earlier work
[5] = concentration required to achieve 50% of the effect of 0.1 nM E2
[6] = concentration required to achieve 50% of the effect of 0.1 nM E2, read-out: Induction of ERE-dependent Luciferase Transcription (MCF-7:D5L cells) EC50E2
[7] = 18 h; read-out: Induction of luciferase gene transcription through ERβ, HEK:ERβ cells, Agonism at 1μΜ (% of 0.1nM E2)
[8] = isoflavonoids 1 μM; statistically significant effects

SMILES	Induction of cell proliferation (MCF-7 cells) Agonism at 1μΜ, class (MCF-7 cells)	RBAβ / RBAα (ERβ [1])	RBAβ (ERβ [1])	RBAα (ERα [2])	Induction of Alkaline Phosphatase Expression (Ishikawa cells) AUC (%) (Ishikawa cells)	Ratio of AUC (AlkP / Lucif) (Ishikawa cells)	EC (25% of 0.1 nM E2 effect) (Ishikawa cells) [µM]	EC50 (Ishikawa cells; [5]) [µM]	Induction of AlkP expression (Ishikawa cells) Agonism at 1μΜ, class (Ishikawa cells)	Induction of ERE-dependent Luciferase Transcription (MCF-7:D5L cells) AUC (%) (ERα [3])	Induction of luciferase gene transcription, MCF-7:D5L cells, Agonism at 1μΜ, class (ERα [3]; compounds 1 μM, 18 h)	Induction of ERE-dependent Luciferase Transcription (MCF-7:D5L cells) EC25E2 (ERα [3]) [µM]	EC50 (ERα [3]; [6]) [µM]	Induction of luciferase gene transcription, HEK:ERβ cells, Agonism at 1μΜ, class (ERβ [4]; compounds 1 μM; 18 h)	activation at 1 µM (ERβ [4]; [7]) [%]	ERβ-dependent gene transcription agonist effect compared to the effect of 0.1 nM estradiol (ERβ [4]; [8])	AlkP response lower than ERα-transcriptional response (relative AUC ratios) (Ishikawa cells)	also measured
COc1ccc(-c2coc3c(OC)c(O)ccc3c2=O)cc1 [Compound 2, 8-methoxyformononetin]	Marginal (⩽10%)	2.50	0.15 ± 0.04	0.06 ± 0.02	0.5±0.2	0.71±0.15	> 30	> 30	Marginal (⩽10%)	0.7±0.1	Marginal (⩽10%)	>30	> 30	Marginal (⩽10%)				
COc1cc(O)cc2occ(-c3ccc(O)cc3)c(=O)c12 [Compound 4, isoprunetin]		5.00	0.15 ± 0.05		94±16	0.94±0.03	3.9 ± 0.19	7.94 ± 2.28	Marginal (⩽10%)	100±14	Marginal (⩽10%)	3.72 ± 0.63	7.32 ± 2.18		27 ± 5	lower than		activation at 1 µM (MCF-7 cells): 19 ± 6%; MCF-7 cell proliferation agonist effect compared to the effect of 0.1 nM estradiol (MCF-7 cells): lower than
COc1cc(-c2coc3cc(O)cc(OC)c3c2=O)ccc1O [Compound 6, 3΄-methoxyisoprunetin]		4.50		0.14 ± 0.04	182±8	0.63±0.01	1.6 ± 0.05	2.61 ± 0.29	Marginal (⩽10%)	289±14		0.98 ± 0.07	1.57 ± 0.24		81 ± 5		~ 30%	activation at 1 µM (MCF-7 cells): 32 ± 3%; MCF-7 cell proliferation agonist effect compared to the effect of 0.1 nM estradiol (MCF-7 cells): lower than; Induction of luciferase gene transcription through ERα, MCF-7:D5L cells, Agonism at 1μΜ (% of 0.1nM E2) (ERα [3]; compounds 1 μM, estradiol 0.1 nM, 18 h): 22 ± 5 (Weak) ^* % of 0.1nM E2; ERα-dependent gene transcription agonist effect compared to the effect of 0.1 nM estradiol (ERα [3]; isoflavonoids 1 μM, statistically significant effects): lower than
COc1cc(O)cc2occ(-c3ccc(O)c(O)c3)c(=O)c12 [Compound 7, 5-O-methylorobol]	Marginal (⩽10%)	1.15	0.15 ± 0.04	0.13 ± 0.04	76±15	0.74±0.13	7.08 ± 0.45	11.8 ± 2.5	Marginal (⩽10%)	103±9	Marginal (⩽10%)	5.35 ± 0.61	9.5 ± 1.57		13 ± 4	lower than	~ 30%	
O=c1c(-c2ccc(O)c(O)c2)coc2c(C3OC(CO)C(O)C(O)C3O)c(O)cc(O)c12 (stereo not drawn) [Compound 9, 8-C-glucopyranosyl-orobol]	Marginal (⩽10%)	0.45	0.05 ± 0.01	0.11 ± 0.03	1.1±0.1	0.69±0.07	> 30	> 30	Marginal (⩽10%)	1.6±0.3	Marginal (⩽10%)	>30	> 30	Marginal (⩽10%)			~ 30%	
COc1cc(OC2OC(CO)C(O)C(O)C2O)cc2occ(-c3ccc(O)cc3)c(=O)c12 (stereo not drawn) [Compound 10, 7-O-glucopyranosyl-isoprunetin]	Marginal (⩽10%)	1.50			109±8	1.58±0.12	3.48 ± 0.51	8.23 ± 1.24	Marginal (⩽10%)	69±5	Marginal (⩽10%)	6.50 ± 1.10	29.8 ± 5.2	Marginal (⩽10%)				AlkP response higher than ERα-transcriptional response (relative AUC ratios) (Ishikawa cells): ~ 40%
O=c1c(-c2ccc(OC3O[C@H](CO)[C@@H](O)[C@H](O)[C@H]3O)cc2)coc2c(C3O[C@H](CO)[C@@H](O)[C@H](O)[C@H]3O)c(O)cc(O)c12 (stereo partly drawn) [Compound 14, 8-C,4΄-O-diglucopyranosyl-genistein]	Marginal (⩽10%)	2.50	0.05 ± 0.02		46±10	1.53±0.02			Marginal (⩽10%)	30±13	Marginal (⩽10%)	3.57 ± 0.58				lower than		AlkP response higher than ERα-transcriptional response (relative AUC ratios) (Ishikawa cells): ~ 40%; EC50 (Ishikawa cells): 6.42 ± 1.52 µM; EC50 (ERα [3]): 7.72 ± 3.08 µM; activation at 1 µM (ERβ [4]; 18 h, read-out: Induction of luciferase gene transcription through ERβ, HEK:ERβ cells, Agonism at 1μΜ (% of 0.1nM E2)): 18 ± 1%
O=c1c(O)c(-c2ccc(O)c(O)c2)oc2cc(O)ccc12 [fisetin]																		EC50 (HT22 cells): ≥ 3 µM
Oc1ccc(/C=C/c2cc(O)cc(O)c2)cc1 [resveratrol]																		EC50 (HT22 cells): ≥ 3 µM
